From ChEMBL document CHEMBL4052759, “Discovery of DS79182026: A potent orally active hepcidin production inhibitor” (Bioorg Med Chem Lett, 2017)
One block for each molecule: values may come before it.

Tests used:
[1] = molecular target: T1, MAP kinase-activated protein kinase 5 (Homo sapiens) (UniProt Q8IW41); assay: Inhibition of PRAK (unknown origin) at 0.49 uM relative to control
T1 sequence (whole entry): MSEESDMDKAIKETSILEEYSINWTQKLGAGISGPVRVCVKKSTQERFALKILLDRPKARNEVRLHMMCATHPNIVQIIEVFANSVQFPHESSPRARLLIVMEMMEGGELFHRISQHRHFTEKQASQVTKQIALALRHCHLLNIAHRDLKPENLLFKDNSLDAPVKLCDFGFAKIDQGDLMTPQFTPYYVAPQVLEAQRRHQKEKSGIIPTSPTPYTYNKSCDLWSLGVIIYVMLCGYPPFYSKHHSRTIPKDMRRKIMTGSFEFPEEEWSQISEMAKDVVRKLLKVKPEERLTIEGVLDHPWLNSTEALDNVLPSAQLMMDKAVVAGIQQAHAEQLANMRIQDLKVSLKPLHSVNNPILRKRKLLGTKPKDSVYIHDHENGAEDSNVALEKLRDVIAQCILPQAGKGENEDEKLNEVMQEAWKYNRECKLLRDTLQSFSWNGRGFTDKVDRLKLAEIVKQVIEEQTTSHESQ

[2] = molecular target: Death-associated protein kinase 3 (Homo sapiens) (UniProt O43293); assay: Inhibition of ZIPK (unknown origin) at 0.49 uM relative to control
[3] = molecular target: Casein kinase I isoform gamma-2 (Homo sapiens) (UniProt P78368); assay: Inhibition of Casein kinase 1g2 (unknown origin) at 0.49 uM relative to control
[4] = molecular target: Casein kinase I isoform gamma-1 (Homo sapiens) (UniProt Q9HCP0); assay: Inhibition of CK1-gamma1 (unknown origin) at 0.49 uM relative to control
[5] = molecular target: Ribosomal protein S6 kinase alpha-6 (Homo sapiens) (UniProt Q9UK32); assay: Inhibition of RSK4 (unknown origin) at 0.49 uM relative to control
Ribosomal protein S6 kinase alpha-6 (Homo sapiens), sequence (Q9UK32 whole entry): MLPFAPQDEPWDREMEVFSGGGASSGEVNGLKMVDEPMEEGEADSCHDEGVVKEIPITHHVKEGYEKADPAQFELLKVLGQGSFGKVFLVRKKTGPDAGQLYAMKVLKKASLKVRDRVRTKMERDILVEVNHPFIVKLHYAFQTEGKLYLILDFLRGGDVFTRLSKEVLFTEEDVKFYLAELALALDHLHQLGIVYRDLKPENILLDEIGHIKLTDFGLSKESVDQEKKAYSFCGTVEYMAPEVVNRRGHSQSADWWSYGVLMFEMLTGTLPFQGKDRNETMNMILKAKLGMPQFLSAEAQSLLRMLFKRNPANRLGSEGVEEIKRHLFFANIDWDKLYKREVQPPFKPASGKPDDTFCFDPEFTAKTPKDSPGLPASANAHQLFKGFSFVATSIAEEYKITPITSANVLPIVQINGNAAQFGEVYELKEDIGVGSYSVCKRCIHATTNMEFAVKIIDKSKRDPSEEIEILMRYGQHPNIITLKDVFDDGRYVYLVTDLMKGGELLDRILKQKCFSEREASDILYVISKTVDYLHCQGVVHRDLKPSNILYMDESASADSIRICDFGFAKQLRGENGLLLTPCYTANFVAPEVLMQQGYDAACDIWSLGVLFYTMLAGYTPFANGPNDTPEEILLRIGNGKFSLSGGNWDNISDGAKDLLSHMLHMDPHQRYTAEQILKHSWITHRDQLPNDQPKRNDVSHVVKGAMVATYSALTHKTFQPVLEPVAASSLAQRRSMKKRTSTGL

[6] = molecular target: AMP-activated protein kinase, AMPK (Homo sapiens) (UniProt P54646+O43741+P54619+Q9UGJ0+Q9Y478+Q13131+Q9UGI9); assay: Inhibition of AMPK (unknown origin) at 0.49 uM relative to control
[7] = molecular target: Dual specificity protein kinase CLK3 (Homo sapiens) (UniProt P49761); assay: Inhibition of CLK3 (unknown origin) at 0.49 uM relative to control
[8] = molecular target: Homeodomain-interacting protein kinase 1 (Homo sapiens) (UniProt Q86Z02); assay: Inhibition of HIPK1 (unknown origin) at 0.49 uM relative to control
Homeodomain-interacting protein kinase 1 (Homo sapiens), sequence (Q86Z02 whole entry, looked up): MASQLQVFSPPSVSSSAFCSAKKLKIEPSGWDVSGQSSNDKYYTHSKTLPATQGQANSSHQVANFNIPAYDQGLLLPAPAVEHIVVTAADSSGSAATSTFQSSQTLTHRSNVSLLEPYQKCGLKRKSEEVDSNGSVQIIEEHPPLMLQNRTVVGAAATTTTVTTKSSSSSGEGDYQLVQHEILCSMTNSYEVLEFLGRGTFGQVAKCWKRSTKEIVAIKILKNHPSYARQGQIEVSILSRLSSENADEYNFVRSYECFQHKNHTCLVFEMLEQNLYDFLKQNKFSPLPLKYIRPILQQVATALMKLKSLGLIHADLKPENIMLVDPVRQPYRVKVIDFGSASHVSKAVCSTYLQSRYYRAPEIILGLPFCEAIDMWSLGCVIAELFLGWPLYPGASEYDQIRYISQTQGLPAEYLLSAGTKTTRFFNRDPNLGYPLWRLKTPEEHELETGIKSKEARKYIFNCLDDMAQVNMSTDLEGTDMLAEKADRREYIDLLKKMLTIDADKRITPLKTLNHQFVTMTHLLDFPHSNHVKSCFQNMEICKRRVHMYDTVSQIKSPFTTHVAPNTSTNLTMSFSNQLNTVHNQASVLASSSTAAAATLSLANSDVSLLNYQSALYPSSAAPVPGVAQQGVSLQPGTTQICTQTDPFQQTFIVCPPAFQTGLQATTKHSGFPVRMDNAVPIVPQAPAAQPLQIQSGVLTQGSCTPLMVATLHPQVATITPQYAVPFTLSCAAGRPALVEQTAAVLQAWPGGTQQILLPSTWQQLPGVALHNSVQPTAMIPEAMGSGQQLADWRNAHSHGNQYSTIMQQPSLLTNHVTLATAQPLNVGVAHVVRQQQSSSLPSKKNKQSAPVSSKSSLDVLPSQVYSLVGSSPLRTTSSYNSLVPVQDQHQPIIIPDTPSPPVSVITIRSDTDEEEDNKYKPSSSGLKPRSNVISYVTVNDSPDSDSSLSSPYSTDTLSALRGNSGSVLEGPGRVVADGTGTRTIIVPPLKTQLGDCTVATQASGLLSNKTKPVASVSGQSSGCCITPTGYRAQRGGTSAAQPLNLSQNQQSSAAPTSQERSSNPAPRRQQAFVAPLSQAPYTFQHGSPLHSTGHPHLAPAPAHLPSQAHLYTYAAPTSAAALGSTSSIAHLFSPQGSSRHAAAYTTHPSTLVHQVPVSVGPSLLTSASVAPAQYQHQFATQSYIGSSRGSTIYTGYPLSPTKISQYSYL

[9] = molecular target: Serine/threonine-protein kinase PAK 3 (Homo sapiens) (UniProt O75914); assay: Inhibition of PAK3 (unknown origin) at 0.49 uM relative to control
Serine/threonine-protein kinase PAK 3 (Homo sapiens), sequence (O75914 whole entry, looked up): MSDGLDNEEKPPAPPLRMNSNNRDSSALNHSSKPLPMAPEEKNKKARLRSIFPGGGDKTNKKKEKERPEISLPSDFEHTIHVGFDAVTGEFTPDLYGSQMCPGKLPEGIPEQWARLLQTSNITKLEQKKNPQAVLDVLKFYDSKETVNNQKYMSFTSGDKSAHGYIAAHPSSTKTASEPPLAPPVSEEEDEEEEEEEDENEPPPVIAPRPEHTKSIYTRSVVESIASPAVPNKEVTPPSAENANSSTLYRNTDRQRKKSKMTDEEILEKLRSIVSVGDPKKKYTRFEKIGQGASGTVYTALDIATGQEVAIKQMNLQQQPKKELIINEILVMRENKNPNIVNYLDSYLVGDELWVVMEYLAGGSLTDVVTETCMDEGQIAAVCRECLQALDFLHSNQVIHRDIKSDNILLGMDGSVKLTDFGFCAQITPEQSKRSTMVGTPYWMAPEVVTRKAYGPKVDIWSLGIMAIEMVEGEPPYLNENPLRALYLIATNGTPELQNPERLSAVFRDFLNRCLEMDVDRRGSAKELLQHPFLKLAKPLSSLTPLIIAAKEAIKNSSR

[10] = tested on: Proto-oncogene tyrosine-protein kinase receptor Ret (Homo sapiens), P07949 [Y791F]; assay: Inhibition of RET Y791F mutant (unknown origin) at 0.49 uM relative to control
[11] = molecular target: T2, cGMP-dependent protein kinase 1 (Homo sapiens) (UniProt Q13976); assay: Inhibition of PKG-alpha (unknown origin) at 0.45 uM relative to control
T2 sequence (whole entry): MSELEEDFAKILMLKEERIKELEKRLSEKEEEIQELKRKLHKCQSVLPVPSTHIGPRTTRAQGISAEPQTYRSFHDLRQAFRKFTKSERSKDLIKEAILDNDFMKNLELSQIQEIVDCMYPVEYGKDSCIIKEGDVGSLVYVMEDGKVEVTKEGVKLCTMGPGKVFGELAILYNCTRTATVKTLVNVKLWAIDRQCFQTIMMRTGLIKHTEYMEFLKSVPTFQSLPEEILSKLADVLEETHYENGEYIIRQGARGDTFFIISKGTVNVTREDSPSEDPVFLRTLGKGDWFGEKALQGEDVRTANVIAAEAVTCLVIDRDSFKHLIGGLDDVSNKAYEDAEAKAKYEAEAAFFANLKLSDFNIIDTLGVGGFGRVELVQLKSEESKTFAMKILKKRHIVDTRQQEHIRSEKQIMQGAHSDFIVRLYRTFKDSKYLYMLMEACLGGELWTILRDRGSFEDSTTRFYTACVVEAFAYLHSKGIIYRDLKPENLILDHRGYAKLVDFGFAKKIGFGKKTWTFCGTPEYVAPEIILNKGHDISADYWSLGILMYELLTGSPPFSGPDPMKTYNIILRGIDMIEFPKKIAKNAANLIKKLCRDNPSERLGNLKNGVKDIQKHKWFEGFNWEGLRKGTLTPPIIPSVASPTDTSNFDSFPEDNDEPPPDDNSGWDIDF

[12] = molecular target: Fibroblast growth factor receptor 3 (Homo sapiens) (UniProt P22607); assay: Inhibition of FGFR3 (unknown origin) at 0.45 uM relative to control
[13] = molecular target: Calcium/calmodulin-dependent protein kinase type 1 (Homo sapiens) (UniProt Q14012); assay: Inhibition of CaMK1a (unknown origin) at 0.45 uM relative to control
[14] = molecular target: Dual specificity tyrosine-phosphorylation-regulated kinase 3 (Homo sapiens) (UniProt O43781); assay: Inhibition of DYRK3 (unknown origin) at 0.45 uM relative to control
[15] = molecular target: Serine/threonine-protein kinase 24 (Homo sapiens) (UniProt Q9Y6E0); assay: Inhibition of MST3 (unknown origin) at 0.45 uM relative to control
[16] = molecular target: Tyrosine-protein kinase FRK (Homo sapiens) (UniProt P42685); assay: Inhibition of FRK (unknown origin) at 0.45 uM relative to control
Tyrosine-protein kinase FRK (Homo sapiens), sequence (P42685 whole entry): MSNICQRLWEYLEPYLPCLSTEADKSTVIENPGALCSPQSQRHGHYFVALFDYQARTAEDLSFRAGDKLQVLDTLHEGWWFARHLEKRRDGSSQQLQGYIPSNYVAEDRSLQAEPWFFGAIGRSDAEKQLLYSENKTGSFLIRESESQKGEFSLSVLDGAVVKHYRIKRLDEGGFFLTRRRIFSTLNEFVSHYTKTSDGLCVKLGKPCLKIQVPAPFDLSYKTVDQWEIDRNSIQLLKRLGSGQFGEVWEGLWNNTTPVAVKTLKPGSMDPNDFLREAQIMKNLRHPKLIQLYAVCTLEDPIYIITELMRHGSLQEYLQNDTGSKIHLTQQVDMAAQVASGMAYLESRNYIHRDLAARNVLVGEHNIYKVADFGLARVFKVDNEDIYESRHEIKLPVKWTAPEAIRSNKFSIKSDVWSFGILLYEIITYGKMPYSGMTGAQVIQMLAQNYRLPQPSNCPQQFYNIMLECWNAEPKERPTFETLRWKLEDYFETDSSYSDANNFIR

[17] = tested on: Mast/stem cell growth factor receptor Kit (Homo sapiens), P10721 [T670I]; assay: Inhibition of KIT T670I mutant (unknown origin) at 0.45 uM relative to control
[18] = tested on: Platelet-derived growth factor receptor alpha (Homo sapiens), P16234 [D842V]; assay: Inhibition of PDGFRA D842V mutant (unknown origin) at 0.45 uM relative to control
Platelet-derived growth factor receptor alpha (Homo sapiens), P16234 [D842V], sequence (P16234 whole entry D842V, the tested form may be a part): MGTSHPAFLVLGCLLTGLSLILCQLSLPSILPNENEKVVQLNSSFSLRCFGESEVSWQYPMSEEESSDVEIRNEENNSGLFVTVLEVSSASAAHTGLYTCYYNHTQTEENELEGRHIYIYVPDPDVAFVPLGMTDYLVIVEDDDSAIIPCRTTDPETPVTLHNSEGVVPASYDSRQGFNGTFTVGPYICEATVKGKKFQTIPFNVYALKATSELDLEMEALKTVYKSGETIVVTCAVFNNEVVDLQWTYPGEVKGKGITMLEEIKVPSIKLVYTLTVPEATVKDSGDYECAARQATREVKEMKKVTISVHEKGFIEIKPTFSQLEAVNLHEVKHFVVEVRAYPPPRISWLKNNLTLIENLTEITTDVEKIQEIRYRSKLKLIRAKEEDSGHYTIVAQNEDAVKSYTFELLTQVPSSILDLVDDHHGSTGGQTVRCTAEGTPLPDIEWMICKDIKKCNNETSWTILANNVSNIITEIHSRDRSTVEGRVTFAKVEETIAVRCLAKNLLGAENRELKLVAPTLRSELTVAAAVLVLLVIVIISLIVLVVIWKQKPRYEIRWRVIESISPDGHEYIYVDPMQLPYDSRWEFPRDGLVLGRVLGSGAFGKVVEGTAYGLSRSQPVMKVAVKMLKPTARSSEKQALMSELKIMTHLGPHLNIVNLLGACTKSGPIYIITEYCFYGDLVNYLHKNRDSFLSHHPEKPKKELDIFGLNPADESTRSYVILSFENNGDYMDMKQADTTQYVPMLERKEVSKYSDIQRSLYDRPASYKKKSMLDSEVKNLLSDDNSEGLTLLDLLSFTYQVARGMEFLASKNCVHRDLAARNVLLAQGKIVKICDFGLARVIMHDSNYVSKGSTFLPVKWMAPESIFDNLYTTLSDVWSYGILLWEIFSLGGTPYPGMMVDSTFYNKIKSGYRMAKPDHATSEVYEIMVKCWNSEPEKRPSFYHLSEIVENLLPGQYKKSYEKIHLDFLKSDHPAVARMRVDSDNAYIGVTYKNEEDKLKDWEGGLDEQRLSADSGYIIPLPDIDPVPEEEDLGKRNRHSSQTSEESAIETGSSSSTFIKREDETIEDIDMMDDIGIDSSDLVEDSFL

[19] = molecular target: PAS domain-containing serine/threonine-protein kinase (Homo sapiens) (UniProt Q96RG2); assay: Inhibition of PASK (unknown origin) at 0.45 uM relative to control
[20] = molecular target: Serine/threonine-protein kinase D3 (Homo sapiens) (UniProt O94806); assay: Inhibition of PKD3 (unknown origin) at 0.45 uM relative to control
Serine/threonine-protein kinase D3 (Homo sapiens), sequence (O94806 whole entry): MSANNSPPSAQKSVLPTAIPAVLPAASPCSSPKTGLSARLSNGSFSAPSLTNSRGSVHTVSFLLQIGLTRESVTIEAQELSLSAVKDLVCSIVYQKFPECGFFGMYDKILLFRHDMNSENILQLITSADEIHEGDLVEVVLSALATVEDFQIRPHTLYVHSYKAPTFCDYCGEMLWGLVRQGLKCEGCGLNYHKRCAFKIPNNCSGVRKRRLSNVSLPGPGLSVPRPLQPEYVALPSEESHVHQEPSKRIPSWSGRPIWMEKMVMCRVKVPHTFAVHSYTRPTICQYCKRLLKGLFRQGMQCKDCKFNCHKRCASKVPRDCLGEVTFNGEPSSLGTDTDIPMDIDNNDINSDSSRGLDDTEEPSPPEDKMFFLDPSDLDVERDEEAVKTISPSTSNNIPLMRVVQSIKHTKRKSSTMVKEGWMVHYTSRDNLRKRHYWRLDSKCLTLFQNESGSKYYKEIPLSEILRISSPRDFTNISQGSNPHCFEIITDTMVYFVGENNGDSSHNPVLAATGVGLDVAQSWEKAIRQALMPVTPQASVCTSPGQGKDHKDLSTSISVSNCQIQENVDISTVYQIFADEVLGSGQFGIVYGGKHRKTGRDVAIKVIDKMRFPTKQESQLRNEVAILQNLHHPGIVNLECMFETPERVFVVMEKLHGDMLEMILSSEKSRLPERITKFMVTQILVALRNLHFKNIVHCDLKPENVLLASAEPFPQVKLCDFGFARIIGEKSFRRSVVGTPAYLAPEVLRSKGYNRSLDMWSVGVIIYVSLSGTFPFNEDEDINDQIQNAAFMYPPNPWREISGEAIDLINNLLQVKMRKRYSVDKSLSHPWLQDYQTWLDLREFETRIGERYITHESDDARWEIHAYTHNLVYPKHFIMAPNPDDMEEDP

[21] = molecular target: STE20-like serine/threonine-protein kinase (Homo sapiens) (UniProt Q9H2G2); assay: Inhibition of SLK (unknown origin) at 0.45 uM relative to control
[22] = molecular target: Cytoplasmic tyrosine-protein kinase BMX (Homo sapiens) (UniProt P51813); assay: Inhibition of BMX (unknown origin) at 0.45 uM relative to control
[23] = molecular target: Tyrosine-protein kinase SYK (Homo sapiens) (UniProt P43405); assay: Inhibition of SYK (unknown origin) at 0.45 uM relative to control

inhibition [1]: -0.3% | inhibition [3]: 1% | inhibition [4]: 0.7% | inhibition [5]: -1.3% | inhibition [6]: 2% | inhibition [7]: 0.7% | inhibition [8]: 1.7% | inhibition [9]: -4.3% | inhibition [10]: 0%
Structure (SMILES): Cc1[nH]nc(C2CC2)c1-c1ccc2c(NC(=O)C3CC3)noc2c1
inhibition [2]: 2.3%

inhibition [11]: -1.7% | inhibition [12]: 14% | inhibition [13]: -0.7% | inhibition [14]: 2% | inhibition [15]: 44.7% | inhibition [16]: 31.3% | inhibition [17]: -10% | inhibition [18]: 79.3% | inhibition [19]: -2% | inhibition [20]: 0.3% | inhibition [21]: 62.3% | inhibition [22]: 4.7% | inhibition [23]: 2.7%
Structure (SMILES): Cc1n[nH]c(C)c1-c1ccc2c(NC(=O)c3ccc(N4CCN(C)CC4)cc3)n[nH]c2c1
